Measured values from patent US10308986B2, “Cancer diagnosis, treatment selection and treatment” (CHILDREN'S MEDICAL CENTER CORPORATION, priority 2013, dated 2019).
Where two headings read alike, the source gives them in different places.

Experiments:
[1] = test system: panel of breast cancer cell lines; assay: Colony formation assay, IC50, panel of breast cancer cell lines; assay type: cell-based; conditions: for association of pattern of sensitivity across cell line panel with relative expression of BRCA1/BLM and BLM/Actin: panel of breast cancer cell lines
Procedure: Three cell lines (BT549, HCC1143, and HCC38) are normal genotype for BRCA1 and have high BLM/Actin and low ratio of BRCA1/BLM. Two cell lines (MDA231 and MDA453) are also normal genotype for BRCA1 but have relatively higher expression of BRCA1/BLM and lower BLM/actin. HCC1937 and MDA436 have homozygous mutation in BRCA1 and undetectable BRCA1/BLM, and higher expression of BLM/Actin.
A panel of cell lines was evaluated for sensitivity to various treatments as indicated by colony formation assay and calculation of IC50 values.

[2] = test system: BT549 breast cancer cells; assay: Colony formation assay, IC50, BT549 cells treated with siRNAs to BLM or FANCI; assay type: cell-based; conditions: versus scramble control
Procedure: We further treated BT549 breast cancer cells, with inherent high levels of BLM and FANCI were treated with gene-specific siRNAs to BLM or FANCI or with a scramble control.

[3] = test system: MDA231 breast cancer cells; assay: Colony formation assay, IC50 for cisplatin, MDA231 cells with BLM overexpression; assay type: cell-based
Procedure: These cells were used in experiments to assess the effect of increasing the expression of BLM. A lentivirus expression vector for HA-tagged BLM cDNA or a control vector was transfected into MDA231 cells. BLM expression was assessed by Western blot analysis for endogenous BLM or for the HA-tag in cells treated with control vector, BLM cDNA, BLM cDNA and a small molecule inhibitor of BLM helicase (BLMi), or BLM cDNA and BLM siRNA.
IC50 for cisplatin was determined by colony formation assay in MDA231 breast cancer cells treated with control vector, BLM cDNA vector, BLM cDNA plus the BLM small molecule inhibitor, and BLM cDNA plus BLM siRNA. […] Consistent with the other findings, this effect was reversed by treatment with the BLM helicase inhibitor and by siRNA knockdown of BLM.

[4] = test system: triple negative breast cancer; conditions: TNBC patients, neoadjuvant cisplatin in combination with bevacizumab; 44 patients completed therapy (Ryan et al., JCO 2009); cited from earlier work
[5] = test system: triple negative breast cancer; conditions: 28 TNBC patients, neoadjuvant cisplatin as single agent (Silver et al., JCO 2010); cited from earlier work
H2AX and 53BP1 foci = assay: Immunofluorescence assay for markers of DNA damage (H2Ax-p and 53BP1-p) in MDA231 cells; assay type: cell-based; conditions: cisplatin after 4 hours, compared with no cisplatin treatment
Procedure: We also performed an immunofluorescence assay for markers of DNA damage (H2Ax-p and 53BP1-p) in MDA231 cells treated with control vector, BLM cDNA, BLM cDNA+BLM inhibitor, or BLM cDNA+BLM siRNA. Overexpression of BLM results in increased H2AX and 53BP1 foci in the absence of any cisplatin treatment indicating spontaneous DNA damage. This effect is even greater in cells treated with cisplatin after 4 hours. The quantitation of foci is shown in the lower bar graphs. The addition of a small molecule BLM helicase inhibitor (Bi) or siRNA to BLM (si) blocks the effect of BLM overexpression on DNA damage foci.

[6] = two BRCA1 mutated cell lines (HCC1937, MDA436) and three cell lines with low BRCA1/BLM and high BLM/actin (BT549, HCC1143, HCC38)
[7] = two cell lines with low BLM and high BRCA1/BLM (MDA231, MDA453)

| Structure (SMILES) | association of pattern of sensitivity across cell line panel with relative expression of BRCA1/BLM and BLM/Actin [1] | sensitivity by colony formation assay (IC50) [1, 6] | sensitivity by colony formation assay (IC50) [1, 7] | effect of siRNA knockdown of either BLM or FANCI on IC50 [2] | sensitivity of MDA231 cells ([3]; MDA231 cells with low levels of BLM) | effect of overexpression of BLM on IC50 for cisplatin ([3]; MDA231 cells, BLM cDNA vector versus control vector) | patients who achieved at least 90% reduction in tumor size [4] | patients who achieved at least 90% reduction in tumor size [5] | H2AX and 53BP1 foci in BLM overexpressing cells (H2AX and 53BP1 foci) |
| --- | --- | --- | --- | --- | --- | --- | --- | --- | --- |
| O=C(c1cc(Cc2n[nH]c(=O)c3ccccc23)ccc1F)N1CCN(C(=O)C2CC2)CC1 [Olaparib] | associated | greater sensitivity | relatively resistant | – | – | – | – | – | – |
| CC(=O)O[C@H]1C(=O)[C@@]2(C)[C@H]([C@H](OC(=O)c3ccccc3)[C@]3(O)C[C@H](OC(=O)[C@H](O)[C@@H](NC(=O)c4ccccc4)c4ccccc4)C(C)=C1C3(C)C)[C@]1(OC(C)=O)CO[C@@H]1C[C@@H]2O [Paclitaxel] | no apparent association | – | – | no significant effect | – | – | – | – | – |
| N.N.[Cl][Pt][Cl] [cisplatin, cis-diamminedichloroplatinum] | associated | greater sensitivity | relatively resistant | increased IC50 (greater resistance) | relative resistance | decrease in the IC50 (greater sensitivity) | 39% | 36% | even greater |
